Columns and labels:
H9c2 [1] = test: Protection against H2O2 induced myocardial cell injury in rat H9c2 cells at 10 uM pretreated for 24 hrs followed by H2O2 exposure and measured after 1.5 hrs (reference value: 17.91 to 57.32%); type: functional; settings: time 25.5 hrs
H9c2 [2] = test: Protection against H2O2 induced myocardial cell injury in rat H9c2 cells assessed as fold change at 10 uM pretreated for 24 hrs followed by H2O2 exposure and measured after 1.5 hrs relative to H2O2 alone; type: functional; settings: time 25.5 hrs
H9c2 [3] = test: Protection against H2O2 induced myocardial cell injury in rat H9c2 cells at 5 uM pretreated for 24 hrs followed by H2O2 exposure and measured after 1.5 hrs (reference value: 41.79+/-1.59%); type: functional; settings: time 25.5 hrs
H9c2 [4] = test: Protection against H2O2 induced myocardial cell injury in rat H9c2 cells assessed as fold change at 5 uM pretreated for 24 hrs followed by H2O2 exposure and measured after 1.5 hrs relative to H2O2 alone; type: functional; settings: time 25.5 hrs
[5] = target: T1, Protein deacetylase HDAC6 (Homo sapiens) (UniProt Q9UBN7); settings: dose 100.0 nM
T1 sequence (whole entry): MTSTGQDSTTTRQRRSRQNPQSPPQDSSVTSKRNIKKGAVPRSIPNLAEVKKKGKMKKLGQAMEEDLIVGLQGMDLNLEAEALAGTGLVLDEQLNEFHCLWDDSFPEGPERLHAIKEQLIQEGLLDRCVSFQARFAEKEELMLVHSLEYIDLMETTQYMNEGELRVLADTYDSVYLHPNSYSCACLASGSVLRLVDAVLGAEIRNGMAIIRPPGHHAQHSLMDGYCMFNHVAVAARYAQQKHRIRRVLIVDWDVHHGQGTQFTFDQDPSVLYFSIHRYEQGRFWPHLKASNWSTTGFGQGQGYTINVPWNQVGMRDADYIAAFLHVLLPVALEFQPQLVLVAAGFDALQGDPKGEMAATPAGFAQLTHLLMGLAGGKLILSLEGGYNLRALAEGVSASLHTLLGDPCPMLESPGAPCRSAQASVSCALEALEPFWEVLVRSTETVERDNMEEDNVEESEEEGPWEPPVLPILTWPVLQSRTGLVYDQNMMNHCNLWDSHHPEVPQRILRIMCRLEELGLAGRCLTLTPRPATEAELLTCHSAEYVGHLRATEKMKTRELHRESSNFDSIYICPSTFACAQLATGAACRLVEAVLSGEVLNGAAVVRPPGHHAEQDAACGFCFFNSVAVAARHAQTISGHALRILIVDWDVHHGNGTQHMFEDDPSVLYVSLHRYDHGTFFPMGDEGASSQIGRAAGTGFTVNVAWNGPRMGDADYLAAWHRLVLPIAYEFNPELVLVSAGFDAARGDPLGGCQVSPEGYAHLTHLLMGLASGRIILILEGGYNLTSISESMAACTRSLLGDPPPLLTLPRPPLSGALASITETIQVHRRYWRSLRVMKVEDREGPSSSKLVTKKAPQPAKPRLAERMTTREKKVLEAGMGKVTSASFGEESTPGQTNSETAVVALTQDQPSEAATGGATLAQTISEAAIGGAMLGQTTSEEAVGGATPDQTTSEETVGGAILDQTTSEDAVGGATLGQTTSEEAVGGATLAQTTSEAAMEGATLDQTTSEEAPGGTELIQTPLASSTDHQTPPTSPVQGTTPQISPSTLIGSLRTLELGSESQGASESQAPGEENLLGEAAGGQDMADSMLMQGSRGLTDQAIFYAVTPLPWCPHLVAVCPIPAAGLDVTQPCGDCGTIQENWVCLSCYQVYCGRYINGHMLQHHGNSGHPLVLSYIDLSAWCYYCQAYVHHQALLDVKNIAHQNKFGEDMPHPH
Description: Inhibition of HDAC6 (unknown origin) at 100 nM relative to control

Q: For `O=c1cc(-c2ccc(O)c(O)c2)oc2cc(O)cc(O)c12` [LUTEOLIN], which Activity (H9c2 [1]) is on record?
A: 91.43%

Q: What about the “fold change (FC)” value (H9c2 [2]) of the same compound?
A: 2.53

Q: What about the Activity (H9c2 [3]) of the same compound?
A: 86.37%

Q: What about the “fold change (FC)” value (H9c2 [4]) of the same compound?
A: 2.07

Q: What about the inhibition [5] of the same compound?
A: 1%

Source: ChEMBL document CHEMBL5550215, “Discovery of Novel Imidazo[1,2-a]pyridine-Based HDAC6 Inhibitors as an Anticarcinogen with a Cardioprotective Effect” (J Med Chem, 2024)
